The Ki is a measure of affinity in units of concentration, obtained from inhibition or displacement.

The record followed here is patent publication US10501451B2, “Selective NR2B antagonists” (BRISTOL-MYERS SQUIBB COMPANY, priority 2015, dated 2019).

In assay [1] the target is NR2B-subtype NMDA receptors (Rattus norvegicus (Rat), UniProt P35439+Q00960). Briefly: Radioligand binding assay (3H Ro 25-6981 competition, rat forebrain membranes). To be noted: 3H Ro 25-6981 (4 nM), P-2, read-out: NR2B Binding Ki. The procedure:
Radioligand Binding Assay. Binding experiments to determine binding to NR2B-subtype NMDA receptors were performed on forebrains of 8-10 weeks old male Sprague Dawley rats (Harlan, Netherlands) using ^3H Ro 25-6981 (Mutel V; Buchy D; Klingelschmidt A; Messer J; Bleuel Z; Kemp J A; Richards J G. Journal of Neurochemistry, 1998, 70(5):2147-2155. Rats were decapitated without anesthesia using a Guillotine (approved by animal ethics committee) and the harvested brains were snap-frozen and stored at −80° C. for 3-6 months for membrane preparation.
For membrane preparation, rat forebrains were thawed on ice for 20 minutes in homogenization buffer composed of 50 mM KH2PO4 (pH adjusted to 7.4 with KOH), 1 mM EDTA, 0.005% Triton X 100 and protease inhibitor cocktail (Sigma Aldrich). Thawed brains were homogenized using a Dounce homogenizer and centrifuged at 48000×g for 20 min. The pellet was resuspended in cold buffer and homogenized again using a Dounce homogenizer. Subsequently, the homogenate was aliquoted, snap-frozen and stored at −80° C. for not more than 3-4 months.
To perform the competition binding assay, thawed membrane homogenate was added to each well of a 96-well plate (20 μg/well). The experimental compounds were serially diluted in 100% DMSO and added to each row of the assay plate to achieve desired compound concentrations, keeping the DMSO concentration in the assay plate at 1.33% of the final reaction volume. Next, ^3H Ro 25-6981 (4 nM) was added to the assay plate. After incubation for 1 hr at room temperature, the membrane bound radioligand was harvested on to GF/B filter plates (treated with 0.5% PEI for 1 hr at room temperature). The filter plates were dried at 50° C. for 20 mins, incubated with microscint 20 for 10 minutes and finally, the counts were read on TopCount (Perkin Elmer).

For assay [2], the target named is brain-resident NR2B-subtype receptors (Mus musculus (Mouse), UniProt P35438+Q01097). The assay is described as follows: Ex vivo occupancy assay. The class given is in vivo. Particulars: animals after dosing. The procedure: Ex Vivo Occupancy Assay. […] 7-9 weeks old male CD-1 mice were dosed intravenously in a vehicle consisting of 10% dimethylacetamide, 40% PEG-400, 30% hydroxypropyl betacyclodextrin, and 30% water with experimental compounds and the forebrains were harvested 15 minutes post-dosing by decapitation. The brain samples were immediately snap-frozen and stored at −80° C. On the following day, the dosed brain samples were thawed on ice for 15-20 minutes followed by homogenization using Polytron for 10 seconds in cold homogenization buffer composed of 50 mM KH2PO4 (pH adjusted to 7.4 with KOH), 1 mM EDTA, 0.005% Triton X 100 and protease inhibitor cocktail (Sigma Aldrich). The crude homogenates were further homogenized using a Dounce homogenizer and the homogenized membrane aliquots from all animals were flash-frozen and stored at −80° C. until further use. The whole homogenization process was performed on ice. For determining occupancy, the membrane homogenates were first thawed on ice and then needle-homogenized using a 25 gauge needle. The homogenized membrane (6.4 mg/ml) was added to a 96-well plate followed by addition of ^3H Ro 25-6981 (6 nM). The reaction mixture was incubated for 5 minutes on a shaker at 4° C. and then harvested onto GF/B filter plates (treated with 0.5% PEI for 1 hr at room temperature). The filter plates were dried at 50° C. for 20 mins, incubated with microscint 20 for 10 minutes and read on TopCount (Perkin Elmer). Each dose or compound group consisted of 4-5 animals. The control group of animals was dosed with vehicle alone. Membrane from each animal was added in triplicates to the assay plate. Non-specific binding was determined using 10 μM Ro 25-6981 added to the wells containing membrane homogenates from vehicle-dosed animals. Specific counts/minute was converted to % occupancy at each dose of a compound for each animal using the following equation: […]
Sequence of brain-resident NR2B-subtype receptors (Q01097 27-1482, other chains not shown): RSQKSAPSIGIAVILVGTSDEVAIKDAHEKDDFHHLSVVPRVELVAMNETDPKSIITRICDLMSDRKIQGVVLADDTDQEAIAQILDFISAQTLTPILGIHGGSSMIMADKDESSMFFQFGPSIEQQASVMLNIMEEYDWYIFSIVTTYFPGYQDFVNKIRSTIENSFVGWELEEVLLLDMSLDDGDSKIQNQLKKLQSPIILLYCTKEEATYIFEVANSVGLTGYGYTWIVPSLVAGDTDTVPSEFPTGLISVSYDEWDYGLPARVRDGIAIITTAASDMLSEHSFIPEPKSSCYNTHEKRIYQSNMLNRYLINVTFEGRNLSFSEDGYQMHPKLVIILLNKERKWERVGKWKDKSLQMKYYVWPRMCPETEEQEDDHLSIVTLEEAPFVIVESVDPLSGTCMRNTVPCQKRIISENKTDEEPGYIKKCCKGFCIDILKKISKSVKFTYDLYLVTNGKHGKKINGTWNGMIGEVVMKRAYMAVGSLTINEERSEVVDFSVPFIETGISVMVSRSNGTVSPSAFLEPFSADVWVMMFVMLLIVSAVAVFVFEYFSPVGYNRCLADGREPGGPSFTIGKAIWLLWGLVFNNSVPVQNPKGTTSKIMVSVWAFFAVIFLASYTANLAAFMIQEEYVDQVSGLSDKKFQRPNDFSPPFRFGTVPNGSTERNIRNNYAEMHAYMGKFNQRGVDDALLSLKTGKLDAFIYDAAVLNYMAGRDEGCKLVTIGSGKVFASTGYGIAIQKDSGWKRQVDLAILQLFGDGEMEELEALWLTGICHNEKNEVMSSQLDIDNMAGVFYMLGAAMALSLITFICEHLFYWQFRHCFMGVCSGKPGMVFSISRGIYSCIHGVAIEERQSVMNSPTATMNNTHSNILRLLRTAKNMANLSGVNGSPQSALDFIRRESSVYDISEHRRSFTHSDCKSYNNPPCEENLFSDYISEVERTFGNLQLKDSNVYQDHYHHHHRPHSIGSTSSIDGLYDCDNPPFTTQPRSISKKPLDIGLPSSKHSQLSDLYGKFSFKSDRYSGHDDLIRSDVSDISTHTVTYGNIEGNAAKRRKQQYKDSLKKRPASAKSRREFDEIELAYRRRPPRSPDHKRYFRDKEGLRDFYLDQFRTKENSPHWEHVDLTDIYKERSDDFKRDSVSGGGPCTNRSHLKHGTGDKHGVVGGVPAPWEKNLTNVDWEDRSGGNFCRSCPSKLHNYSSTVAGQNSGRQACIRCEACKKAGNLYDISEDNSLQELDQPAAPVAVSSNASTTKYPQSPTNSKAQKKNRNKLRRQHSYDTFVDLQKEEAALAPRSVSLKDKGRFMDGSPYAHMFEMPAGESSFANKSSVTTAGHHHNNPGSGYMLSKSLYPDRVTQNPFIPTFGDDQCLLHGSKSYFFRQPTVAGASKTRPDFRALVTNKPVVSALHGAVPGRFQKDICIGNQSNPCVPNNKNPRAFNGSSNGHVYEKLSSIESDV
Drug levels were determined by mass spectroscopy in the usual manner. Drug levels in the blood plasma were 572 nM in at this dose, and drug levels in the homogenized brain tissue were 863 nM.

Sequence of NR2B-subtype NMDA receptors (Q00960 27-1482, other chains not shown): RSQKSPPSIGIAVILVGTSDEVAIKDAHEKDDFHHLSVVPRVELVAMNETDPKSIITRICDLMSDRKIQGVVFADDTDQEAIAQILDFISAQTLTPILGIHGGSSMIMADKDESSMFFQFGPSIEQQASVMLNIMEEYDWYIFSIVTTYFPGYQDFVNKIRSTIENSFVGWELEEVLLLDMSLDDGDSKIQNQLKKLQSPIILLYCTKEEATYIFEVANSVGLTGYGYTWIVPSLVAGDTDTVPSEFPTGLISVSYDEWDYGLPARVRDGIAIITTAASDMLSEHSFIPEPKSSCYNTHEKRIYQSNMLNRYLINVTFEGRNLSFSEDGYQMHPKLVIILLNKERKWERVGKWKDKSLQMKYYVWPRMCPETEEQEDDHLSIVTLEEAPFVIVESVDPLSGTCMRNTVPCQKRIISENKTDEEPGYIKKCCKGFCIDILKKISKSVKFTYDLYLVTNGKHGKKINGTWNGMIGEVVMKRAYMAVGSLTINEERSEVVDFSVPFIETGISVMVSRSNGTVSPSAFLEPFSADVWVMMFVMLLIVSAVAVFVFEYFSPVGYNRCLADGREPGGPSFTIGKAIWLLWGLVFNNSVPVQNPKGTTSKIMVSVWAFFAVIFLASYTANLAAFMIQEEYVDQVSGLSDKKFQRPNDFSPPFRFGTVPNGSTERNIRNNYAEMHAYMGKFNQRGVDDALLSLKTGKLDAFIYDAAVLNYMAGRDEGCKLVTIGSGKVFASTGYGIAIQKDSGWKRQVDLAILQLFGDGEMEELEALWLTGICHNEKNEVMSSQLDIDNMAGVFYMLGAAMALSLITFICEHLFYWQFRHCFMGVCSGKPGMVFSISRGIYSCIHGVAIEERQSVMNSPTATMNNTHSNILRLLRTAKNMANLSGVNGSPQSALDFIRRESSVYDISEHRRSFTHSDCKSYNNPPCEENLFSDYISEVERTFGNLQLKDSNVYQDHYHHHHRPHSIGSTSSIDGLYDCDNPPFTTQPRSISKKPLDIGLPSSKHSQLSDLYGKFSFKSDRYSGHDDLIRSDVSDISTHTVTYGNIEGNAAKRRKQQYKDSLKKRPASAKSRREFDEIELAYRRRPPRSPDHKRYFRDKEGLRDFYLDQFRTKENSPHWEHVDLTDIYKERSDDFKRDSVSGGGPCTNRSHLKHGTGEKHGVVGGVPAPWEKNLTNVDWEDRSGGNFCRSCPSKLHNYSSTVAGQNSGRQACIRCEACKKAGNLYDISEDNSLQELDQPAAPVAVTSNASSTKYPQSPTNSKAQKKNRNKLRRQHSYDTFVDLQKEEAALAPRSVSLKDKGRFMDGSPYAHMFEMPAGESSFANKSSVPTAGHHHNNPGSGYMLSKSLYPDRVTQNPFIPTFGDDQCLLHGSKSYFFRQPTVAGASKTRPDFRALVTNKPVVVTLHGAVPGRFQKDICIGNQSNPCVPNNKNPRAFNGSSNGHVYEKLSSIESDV

For the compound `Cc1ccc(CN2OCC(N3CCC(c4ccc(O)cc4)CC3)C2=O)cc1` (single isomer, unassigned) [Example 2, P-2, 4-(4-(4-hydroxyphenyl)piperidin-1-yl)-2-(4-methylbenzyl)isoxazolidin-3-one], the Ki in assay [1] was found to be 2.79 nM. Besides, the “occupancy of brain-resident NR2B-subtype receptors after dosing (in words)” value in assay [2] is “occupies brain-resident NR2B-subtype receptors”.
